In patent US5705523A, “Pyridine- and imidazole-derived agents for cardiovascular diseases” (Pfizer Inc., priority 1991, dated 1998):

How the values were obtained:
[1] = target: T1, thromboxane A2 synthetase (Homo sapiens, UniProt P24557); assay: Thromboxane A2 (T×A2) synthetase inhibition (T×B2 production, radioimmunoassay); assay type: biochemical; conditions: human platelet microsomes, in vitro; read-out: T×A2 synthetase inhibitory activity: IC50
T1 construct: Indomethacin pretreated human platelet microsomes; from tissue; host or cells: human platelets (microsomes)
T1 sequence (P24557 1-533): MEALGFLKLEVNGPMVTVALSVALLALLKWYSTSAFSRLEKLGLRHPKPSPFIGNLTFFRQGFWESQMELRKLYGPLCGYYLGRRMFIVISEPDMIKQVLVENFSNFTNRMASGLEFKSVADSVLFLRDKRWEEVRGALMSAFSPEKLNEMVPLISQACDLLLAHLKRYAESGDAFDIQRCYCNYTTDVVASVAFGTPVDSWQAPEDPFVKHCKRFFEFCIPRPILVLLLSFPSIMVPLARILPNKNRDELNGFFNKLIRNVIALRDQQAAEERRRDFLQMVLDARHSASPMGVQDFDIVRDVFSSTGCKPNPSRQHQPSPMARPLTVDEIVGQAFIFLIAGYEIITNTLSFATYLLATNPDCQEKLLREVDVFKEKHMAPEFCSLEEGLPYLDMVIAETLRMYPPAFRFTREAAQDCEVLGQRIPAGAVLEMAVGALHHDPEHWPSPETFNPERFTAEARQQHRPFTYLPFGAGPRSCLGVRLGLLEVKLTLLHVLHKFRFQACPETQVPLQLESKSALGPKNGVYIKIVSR
Protocol: Ram seminal vesicle microsomes (Biochemistry, 1971, 10, 2372) are incubated with arachidonic acid (100.0 μM) for 1.0 minute at 22° C. to produce endoperoxide (PGH2). Aliquots of PGH2 are incubated for 30 seconds at 22° C. with pig aorta microsomes (Nature, 1976, 263, 663) and the reaction terminated with five volumes of ethanol. PGI2 production is assessed by measuring its stable breakdown product 6-keto-PGF1α, using a specific radioimmunoassay.
Indomethacin pretreated human platelet microsomes (Science 1976, 193, 163) are incubated for 2 minutes at 0° C. with PGH2 (produced as in 1) and the reaction terminated with 5 volumes of ethanol. T×A2 production is assessed by measuring its stable metabolite T×B2,using a specific radioimmunoassay.
The test compound is pre-incubated with enzyme for 5 minutes, and its ability to inhibit the thromboxane A2 synthetase enzyme is measured as the reduction of T×A2 (T×B2) production.

thromboxane A2 receptor = target: T2, thromboxane A2 receptor (Rattus norvegicus, UniProt P34978); assay: Thromboxane A2 receptor antagonism (U-46619 contraction of rat aortic strips); assay type: cell-based; conditions: agonist U-46619, in vitro, read-out: T×A2 antagonist activity: pA2 (converted)
T2 construct: Spirally cut rat aortic strips; from tissue; host or cells: rat aorta (spirally cut strips)
T2 sequence (P34978 1-341): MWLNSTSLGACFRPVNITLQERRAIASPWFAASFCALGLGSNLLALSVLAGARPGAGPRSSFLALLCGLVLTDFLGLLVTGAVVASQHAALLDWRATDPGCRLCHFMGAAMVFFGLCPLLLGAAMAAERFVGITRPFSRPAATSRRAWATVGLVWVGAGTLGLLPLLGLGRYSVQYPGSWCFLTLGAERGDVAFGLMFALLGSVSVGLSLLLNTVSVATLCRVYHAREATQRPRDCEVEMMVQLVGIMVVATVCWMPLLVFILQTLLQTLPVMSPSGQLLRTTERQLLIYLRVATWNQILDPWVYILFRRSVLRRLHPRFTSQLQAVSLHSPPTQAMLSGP
Protocol: Spirally cut rat aortic strips, mounted for isometric tension recording in 20 ml organ baths, are bathed in Krebs-bicarbonate solution at 37° C. Following an incubation period of 2 hours under 1 gram resting tension, the tissues are pre-treated with U-46619 (a thromboxane A2 receptor agonist) for 10 minutes, then washed and the tissues allowed to equilibrate for a further 1 hour. Cumulative doses of U-46619 over the range 1 nM-100 nM are sequentially included in the bathing fluid and increases in the tissue tension noted.
The test compounds are incubated with the tissue for 15 minutes prior to repeating the cumulative dosing of U-46619 and the ability of the compound to antagonize the thromboxane A2 receptor is determined from the dose-response curves for U-46619 in the presence of varied concentrations of the test compound.

PGI2 synthetase = conditions: pre-incubation with pig aorta microsomes; result in words; cited from earlier work

For `O=C(O)CCc1cc(CCNS(=O)(=O)c2ccc(Cl)cc2)cc(Cc2cccnc2)c1` [Example 48, 3-{3-[2-(4-Chlorophenylsulphonylamino)ethyl]-5-(3-pyridylmethyl)phenyl}propanoic acid], the IC50 [1] was 39 nM and the Kb (thromboxane A2 receptor) was 0.407 nM.
For `O=C(O)CCc1cc(CCNS(=O)(=O)c2ccc(Cl)cc2)cc(Oc2cccnc2)c1` [Example 62, 3-{3-[2-(4-Chlorophenylsulphonylamino)ethyl]-5-(3-pyridyloxy)phenyl}propanoic acid], the IC50 [1] was 37 nM and the Kb (thromboxane A2 receptor) was 0.398 nM.
With `C=C(c1cccnc1)c1cc(CCNS(=O)(=O)c2ccc(Cl)cc2)cc(CCC(=O)O)c1` [Example 83, 3-{3-[2-(4-Chlorophenylsulphonylamino)ethyl]-5-[1-(3-pyridyl)ethenyl]phenyl}propanoic acid] the IC50 [1] was 53 nM and the Kb (thromboxane A2 receptor) was 0.0977 nM.
`CC(O)(c1cccnc1)c1cc(CCNS(=O)(=O)c2ccc(Cl)cc2)cc(CCC(=O)O)c1` (stereo not shown) [Example 67] gave an IC50 [1] of 61 nM and a Kb (thromboxane A2 receptor) of 0.851 nM.
With `CC(c1cccnc1)c1cc(CCNS(=O)(=O)c2ccc(Cl)cc2)cc(CCC(=O)O)c1` (stereo not shown) [Example 85, 3-{3-[2-(4-Chlorophenylsulphonylamino)ethyl]-5-[1-(3-pyridyl)ethyl]phenyl}propanoic acid] the IC50 [1] was 38 nM and the Kb (thromboxane A2 receptor) was 0.0692 nM.
`C=C(c1cccnc1)c1cc(CCNS(=O)(=O)c2ccccc2)cc(CCC(=O)O)c1` [Example 82, 3-{3-(2-Phenylsulphonylamino)ethyl-5-[1-(3-pyridyl)ethenyl]phenyl}propanoic acid] gave an IC50 [1] of 50 nM and a Kb (thromboxane A2 receptor) of 0.759 nM.
In the case of `O=C(O)CCc1cc(CCNS(=O)(=O)c2ccc(Br)cc2)cc(Cc2cccnc2)c1` [Example 49, 3-{3-[2-(4-Bromophenylsulphonylamino)ethyl]-5-(3-pyridylmethyl)phenyl}propanoic acid], the IC50 [1] is reported as 49 nM and the Kb (thromboxane A2 receptor) is reported as 0.363 nM.
For `CCCCCC(/C=C/C=C\C/C=C\C/C=C\CCCC(=O)O)OO` (stereo not shown) [15-hydroperoxyarachidonic acid], the “inhibition of PGI2 production by PGI2 synthetase” value (PGI2 synthetase) is listed as “completely inhibited”.
Compound `CC(c1cccnc1)c1cc(CCNS(=O)(=O)c2ccccc2)cc(CCC(=O)O)c1` (stereo not shown) [Example 84, 3-{3-(2-Phenylsulphonylamino)ethyl-5-[1-(3-pyridyl)ethyl]phenyl}propanoic acid] has an IC50 [1] of 44 nM and a Kb (thromboxane A2 receptor) of 0.186 nM.
`O=C(O)CCc1cc(CCNS(=O)(=O)c2ccccc2)cc(Oc2cccnc2)c1` [Example 61, 3-[3(2-Phenylsulphonylamino)ethyl-5-(3-pyridyloxy)phenyl]propanoic acid] gave an IC50 [1] of 38 nM and a Kb (thromboxane A2 receptor) of 0.871 nM.
